Test results taken from PMC2765508 (Biochemistry, 2009).
“Also recorded” adds a separate entry of the source.

Key:
human MP1 [1] = biological target: T1, human MP1 (Homo sapiens, UniProt Q5JRX3); assay type: biochemical; details: for kcat/Km: from kcat (HPLC) and Km (alternate substrate inhibition)
T1 sequence (Q5JRX3 29-1037): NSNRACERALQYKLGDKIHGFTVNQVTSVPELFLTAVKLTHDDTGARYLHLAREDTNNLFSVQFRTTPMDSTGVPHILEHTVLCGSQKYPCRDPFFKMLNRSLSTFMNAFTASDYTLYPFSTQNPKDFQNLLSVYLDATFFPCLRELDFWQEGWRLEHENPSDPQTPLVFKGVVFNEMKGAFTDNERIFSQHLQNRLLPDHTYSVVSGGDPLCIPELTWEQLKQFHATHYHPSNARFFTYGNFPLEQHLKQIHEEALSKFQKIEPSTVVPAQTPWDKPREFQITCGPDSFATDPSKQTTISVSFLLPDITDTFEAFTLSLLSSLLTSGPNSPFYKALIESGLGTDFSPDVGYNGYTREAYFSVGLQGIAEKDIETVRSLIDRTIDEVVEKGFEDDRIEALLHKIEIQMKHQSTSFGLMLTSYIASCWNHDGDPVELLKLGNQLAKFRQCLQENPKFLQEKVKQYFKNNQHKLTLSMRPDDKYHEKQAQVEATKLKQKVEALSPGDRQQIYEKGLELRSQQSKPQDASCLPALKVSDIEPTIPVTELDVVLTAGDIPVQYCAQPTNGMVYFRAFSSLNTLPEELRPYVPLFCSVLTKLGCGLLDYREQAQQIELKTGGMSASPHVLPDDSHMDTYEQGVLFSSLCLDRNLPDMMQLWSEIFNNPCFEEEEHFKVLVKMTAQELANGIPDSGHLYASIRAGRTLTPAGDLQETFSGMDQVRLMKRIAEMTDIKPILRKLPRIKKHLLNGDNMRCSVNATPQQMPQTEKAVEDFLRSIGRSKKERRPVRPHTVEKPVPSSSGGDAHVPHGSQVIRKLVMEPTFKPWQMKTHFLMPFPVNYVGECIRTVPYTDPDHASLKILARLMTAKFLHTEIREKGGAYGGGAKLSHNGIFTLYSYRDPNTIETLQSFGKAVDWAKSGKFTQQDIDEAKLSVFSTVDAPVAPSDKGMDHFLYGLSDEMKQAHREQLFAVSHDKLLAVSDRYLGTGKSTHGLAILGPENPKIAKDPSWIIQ

[2] = system: MP1 (metallopeptidase 1, mammalian pitrilysin); experiment: purified recombinant human MP1
protease III = details: cited from earlier work
insulysin = details: cited from earlier work
nardilysin = details: cited from earlier work
human MP1 [3] = biological target: T1, human MP1; assay type: biochemical; details: 27 amino acid citrate synthase presequence peptide as MP1 substrate
MP1 = experiment: 2 μg of MP1 in 25 mM Tris buffer, pH 7.5; details: human

| Substance | kcat/Km (human MP1 [1]) [M × min^−1 × 10^5] | cleaved bond [2] | further results |
| --- | --- | --- | --- |
| SLRRSSCFGGRMD▼RIGAQSGLGCNS▼FRY (disulfide) [Atrial natriuretic peptide] | 199.2 ± 18.6 | – | – |
| Insulin | 0.03 ± 0.00 | – | – |
| Y↓GGFLRRQF↓K▼VVT [Dynorphin B] | 46.3 ± 6.8 | – | – |
| RPKPQQF↓FG▼LM [Substance P] | 23.6 ± 2.5 | – | – |
| Y↓ADAIFTNSYRKVLG▼QLS▼ARKL↓QDIMQQGESNQERGA [Growth Hormone Releasing factor] | 29.4 ± 3.4 | – | – |
| YGGFL | – | Y-G, first_seen | – |
| Y↓GGFLRRQFK↓VVT↓RSQED▼PNAYYEEL▼FDV [Leumorphin (porcine), Leumorphin] | 63.5 ± 4.5 | – | – |
| Angiotensin I | 44.6 ± 4.3 | – | cleavage by protease III (protease III): not cleaved; cleavage by insulysin (insulysin): not cleaved; cleavage by nardilysin (nardilysin): not cleaved |
| CGNLSTC▼MLG▼TYTQDFNK↓FHTFPQTAIGVGAP [Calcitonin] | 15.4 ± 0.6 | – | – |
| DAEFRHDSGYEVHHQKLVFF▼AEDVGSNKGAIIGL↓MVGGVV [β-Amyloid (1–40)] | 19.5 ± 1.1 | – | – |
| RPKPQQFFGLM | – | F-F, minor; also recorded: G-L, first_seen | – |
| RPPG▼FSPFR [Bradykinin] | 21.8 ± 1.2 | – | cleavage by protease III (protease III): not cleaved; cleavage by insulysin (insulysin): not cleaved; cleavage by nardilysin (nardilysin): not cleaved |
| YGGFLRRQFKVVT | – | Y-G, minor; also recorded: F-K, minor; also recorded: K-V, first_seen | – |
| CGNLSTCMLGTYTQDFNKFHTFPQTAIGVGAP | – | C-M, first_seen; also recorded: G-T, first_seen; also recorded: K-F, minor | – |
| MALLTAAARLFGAKNASCLVLAARHAS-NH2 [citrate synthase presequence peptide] | – | – | Km (human MP1 [3]): 0.17 µM; kcat (human MP1 [1]; 27 amino acid citrate synthase presequence peptide as MP1 substrate): 0.0183 s⁻¹ |
| Somatostatin | 41.7 ± 3.8 | – | – |
| YADAIFTNSYRKVLGQLSARKLQDIMQQGESNQERGA | – | Y-A, minor; also recorded: G-Q, first_seen; also recorded: S-A, first_seen | – |
| YGGFLRRIRPKLKWDNQ | – | R-I, minor; also recorded: P-K, first_seen; also recorded: Y-G, minor | – |
| YGGFL [Leu-enkephalin] | 18.7 ± 2.1 | – | – |
| Y↓GGFLRR↓IRP▼KLKWDNQ [Dynorphin A] | 62.6 ± 6.8 | – | – |
| SLRRSSCFGGRMDRIGAQSGLGCNSFRY | – | D-R, first_seen; also recorded: S-F, first_seen | – |
| YGG↓F↓MTSEKSETPLV↓T↓L▼FKNA▼IIKNAYKKGE [β-endorphin] | 62.6 ± 5.1 | – | – |
| YGGFMTSEKSETPLVTLFKNAIIKNAYKKGE | – | – | cleaved bond (MP1): Phe-M, minor; also recorded: Thr16-Leu17, minor; also recorded: Pro13-Leu14, minor; also recorded: Leu14-Val15, minor |
